According to patent publication US20110098223A1, “USE OF THE PAT NANOPEPTIDE IN THE TREATMENT OF AUTOIMMUNE DISEASES” (priority 2008, published 2011):

Tested on: Rats of OFA (SD) strain
Test: Arthritis induced by Freund's adjuvant (Mycobacterium butyricum) in the rat
Assay type: in vivo
Procedure: We used the model of arthritis induced by Freund' adjuvant as described in the article of Milan et al., J Neurosci 1986; 6: 899-906. The rats are administered with Mycobacterium butyricum develop usually a severe polyarthritis which resembles to that in human. Rats of OFA (SD) strain (Oncins France Strain A) weighing approximately 200 g received an […] of a 10 mg/ml Mycobacterium butyricum solution at the articulation of the right ankle. For all the measured parameters, the rats were divided into 5 groups (8 rats/group) in the following way: • reference group: the rats received a paraffin injection instead of the solution of Mycobacterium butyricum (no induced arthritis) then receive an intraperitoneal injection of saline solution; • arthritic group+injection of saline solution; • arthritic group+intraperitoneal injection of 3 mg/kg indomethacin; the indomethacin being a NSAID classically used as reference in this kind of test; • arthritic group+intraperitoneal injection of […]; • arthritic group+intraperitoneal injection of […]. The products are administered 5 times per week during 3 weeks. At the beginning of the experimentation (day 0), one determines the initial values for the different parameters (volume of the leg, macroscopic clinical score, sedimentation test and hypersensitivity). During the experiment, several parameters are measured: • the volume of the leg (“paw latency duration”); • the globular sedimentation test (“Erythrocyte Sedimentation rate”); • the macroscopic score: • “0” means that no sign of arthritis was detected; • “1” means that a swelling or an inflammation was detected on a leg; • “2” means that a swelling or an inflammation was detected on two legs; • “3” means that a swelling or an inflammation was detected on at lest 3 legs; • “4” means that a swelling or an inflammation was detected on the 4 legs. • hypersensitivity according to the plantar test: carried out according to Yukinori Nagakura and al, Allodynia and hyperalgesia in adjuvant-induced arthritic rats: time course of progression and efficacy of analgesics, JPET 306: 490-497, 2003, or in Andersen M L and al “Evaluation of acute and chronic treatments with Harpagophytum procumbens one Freund's adjuvant-induced arthritis in rats”. J. Ethnopharmacol. 2004 April; 91 (2-3): 325-30; • the erythrocyte sedimentation rate (ESR): the increase in this one generally accompanies the clinical symptoms met in induced arthritis. The ESR is measured in the arthritic rats (at Day 21) 1 hour and 2 hours after the injection of PAT or indomethacin, according to the protocol of Mahajan S G, et al., Protective Effect of Ethanolic Extract of Seeds of Moringa will oleifera Lam. Against Inflammation Associated with Development of Arthritis in Rats. J. Immunotoxicol. 2007 January; 4 (1): 39-47.

COc1ccc2c(c1)c(CC(=O)O)c(C)n2C(=O)c1ccc(Cl)cc1 [indomethacin]
hypersensitivity measured by the plantar test (Day 16, PAT at the 2 doses, indomethacin, equivalent to the non-arthritic reference group, FIG. 6): very reduced
erythrocyte sedimentation rate (ESR) (arthritic rats, Day 21, FIG. 7): reduced in a very important way
clinical macroscopic score (compared to arthritic rats which received saline solution, until Day 21, FIG. 5): significant reduction
volume of the leg (during the first 12 days, PAT 0.4 and 4 μg/kg i.p., indomethacin 3 mg/kg i.p., 5 times per week, FIG. 4): do not have a notable effect
inflammation and volume of the leg (from Day 14 until Day 21, PAT 0.4 and 4 μg/kg i.p., indomethacin 3 mg/kg i.p., FIG. 4): notable reduction
